{"source": "patent US20170209544A1", "about": "“A PEPTIDE THERAPY TO COUNTERACT INSULIN RESISTANCE AND TYPE 2 DIABETES” (The Regents of the University of California, priority 2014, published 2017)", "key": {"[1]": {"system": "KO-DIO mice", "experiment": "Hepatic gene expression in PST-treated KO-DIO mice", "format": "in vivo", "settings": "PST 5 μg/g BW for 15 days", "description": "RNA from tissues was extracted using a kit (RNeasy Plus, Qiagen, Valencia, Calif.). After DNase digestion, 200 ng of RNA was transcribed into cDNA in a 20-μl reaction using a High Capacity cDNA Archive kit and this cDNA was amplified. PCR (25-μl reactions) contained 5 μl of cDNA, 2×SYBR Green PCR Master Mix, and 400 nM of each primer. Differences in the threshold cycle number (ΔCt) between the target gene, the housekeeping gene Gapdh and the ribosomal protein gene 36B4 were used to calculate differences in expression. Primer sequences are provided below.\nTo determine chronic effects, KO-NCD mice were treated with saline, PST (5 μg/g BW), PSTv1 (10 μg/g BW) or PST+PSTv1 for 15 days, fasted for 12 hrs after the last of injection and subjected to (FIG. 14C) GTT (2-way ANOVA: Treatment (Sal vs PST), Time, p<0.0001; Interaction, p<0.05; Treatment (PST vs PSTv1), p<0.0001; Time, p<0.0001; Interaction, p<0.01; n=7). The corresponding AUC is shown in (FIG. 14D). FIG. 14E reports liver glycogen at basal and during clamp in DIO mice (n=6). FIG. 14F reports chronic effects of PST (5 μg/g BW for 15 days) on expression of hepatic gluconeogenic genes (Pepck and G6pase) in DIO mice (n=6). FIG. 14G reports chronic effects of PST (5 μg/g BW for 15 days) on expression of hepatic lipid metabolic (Acc, Ppara, Cpt-1, Acox-1 and Srebp-1) genes in DIO mice (n=6). […]"}, "[2]": {"system": "peritoneal macrophages", "experiment": "In vitro chemotaxis assay", "format": "cell-based, mice", "description": "In vitro chemotaxis assays were performed as previously described. Briefly, thioglycollate-activated peritoneal macrophages were isolated from 8 week-old male C57BL/6J mice and pretreated with the indicated concentrations of PST for 2 hours at 37° C. in serum-free RPMI. For migration analysis, 200,000 peritoneal macrophages were placed in each of the upper chamber of a 4-μm polycarbonate filter (24-transwell format; Corning, Tewksbury, Mass.), whereas compounds resuspended in serum-free RPMI at the indicated concentrations were placed in the lower chamber. After 3 hours of migration at 37° C., cells were fixed in 4% paraformaldehyde, stained with DAPI and counted under the microscope."}, "[3]": {"system": "KO-DIO mice", "experiment": "Immunoblot of signaling in PST-treated KO-DIO mice", "format": "in vivo", "description": "Tissues were homogenized in a buffer containing phosphatase and protease inhibitors. Homogenates were subjected to SDS-PAGE and immunoblotted. Primary antibodies for phosphorylated and total Akt, AMPK, FoxO1, and JNK were from Cell Signaling Technology (Beverly, Mass.). Actin and Srebp-1 antibodies were from Santa Cruz Biotechnology (CA).\nPhosphorylation and activation of Akt, an important component of the insulin signaling pathway was analyzed by Western blot. […] Weight-matched saline-treated WT-DIO or KO-DIO and PST-treated KO-DIO mice were fasted for 12 hrs, injected with insulin (0.4 mU/g BW, IP) for 10 min and sacrificed for tissue collection. Tissues were homogenized, lysates were subjected to SDS-PAGE and immunoblotted for p-Akt in muscle (14A, n=4), WAT (14B, n=4) and liver (14C, n=4) and for p-AMPK in muscle (14D), WAT (14E) and liver (14F). “*” Denotes comparison between the indicated groups. “*”: P<0.05, “**”: p<0.01, “***”: p<0.001.\nThe insulin-stimulated phosphorylation of FoxO1, downstream of Akt (82 kDa pFoxO1 and 95 kDa pFoxO1), in KO-DIO mice was higher in WAT and the liver than corresponding insulin-treated WT-DIO tissues (FIGS. 16A and 16B). Weight-matched saline-treated WT-DIO or KO-DIO and PST-treated KO-DIO mice were fasted for 12 hrs, injected with insulin (0.4 mU/g BW, IP) for 10 min and sacrificed for tissue collection. Tissues were homogenized, lysates were subjected to SDS-PAGE and subsequently immunoblotted to detect phospho-p95-FoxO1 and phospho-p82-FoxO1 signals in WAT (16A, n=4) and phospho-p82-FoxO1 signals in liver (16B, n=4), phospho-p54-Jnk and phospho-p46-Jnk signals in WAT (16C, n=4) and liver (16D, n=4), and p125-Srebp-1 and p-68-Srebp-1 (mature) signals in liver (16E, n=4). “*” Denotes comparison between the indicated groups. “*”: P<0.05, “**”: p<0.01, “***”: p<0.001."}, "[4]": {"system": "KO-NCD mice", "experiment": "GTT in NCD-fed Chga-KO mice (acute and chronic)", "format": "in vivo", "description": "For glucose tolerance tests (GTT), glucose (1 mg/g) was injected intraperitoneally (IP-GTT) (at time zero) or gavaged orally (O-GTT) after a 12-hours fast. Tail-vein glucose levels were measured at −30, 0, 15, 30, 60, 90, and 120 minutes. For insulin tolerance tests (ITT), insulin (0.4 mU/g) was injected intraperitoneally and blood glucose levels were measured at the indicated time points. Chronic PST (5 μg/g/day) and PSTv1 (10 μg/day) treatments were carried out for 15 days. For acute treatment, either peptides or saline were injected 30 minutes before glucose or insulin injection. Synergy Software Kaleidagraph Version 4.0 calculated the area under the curve (AUC) for each line curve.\nTo determine acute effects, NCD fed Chga-KO mice (KO-NCD) were fasted for 12 hrs, treated with saline, PST (5 μg/g BW), PSTv1 (10 μg/g BW) or PST+PSTv1 for 30 min (−30 min) before injecting glucose (0 min) for (FIG. 14A) IP-GTT (2-way ANOVA: Treatment (Sal vs PST), p<0.0001, Time, p<0.0001; Interaction, p<0.002; Treatment (PST vs PSTv1), p<0.0001; Time, p<0.0001; Interaction, p<0.005; n=7). The corresponding AUC is shown in (FIG. 14B). […]"}}, "note": "Where no end group is shown, it is not given here."}
{"substance": "PEGKGEQEHSQQKEEEEEMAVVPQGLFRG-amide (PEGKGEQEHSQQKEEEEEMAVVPQGLFRG-NH2) [PST, Wild-type human pancreastatin, a chromogranin A derived peptide]", "values": [{"measurement": "lower mRNA levels of Pepck and G6pase in KO-DIO liver", "setting": "[1]", "value": "reversed"}, {"measurement": "expression of Acox-1 and Cpt-1", "setting": "[1]; liver", "value": "increased"}, {"measurement": "chemotaxis relative to Mcp-1", "setting": "[2]; 10 nM PST vs 10 nM Mcp-1", "value": 44, "unit": "%"}, {"measurement": "chemotaxis compared to saline-treated controls", "setting": "[2]; peritoneal macrophage cultures", "value": "significantly higher levels of chemotaxis"}, {"measurement": "FoxO1 signaling in WAT", "setting": "[3]; WAT", "value": "modulated"}, {"measurement": "increased insulin-stimulated pFoxO1-p95 signals in WAT", "setting": "[3]; WAT", "value": "reversed"}, {"measurement": "hepatic AMPK, FoxO1 or Jnk signaling", "setting": "[3]; liver", "value": "did not alter"}, {"measurement": "Srebp-1c p68 to p125 ratio", "setting": "[3]; liver, compared to untreated KO-DIO", "value": "decreased"}, {"measurement": "AMPK signaling", "setting": "[3]; muscle, WAT and liver", "value": "did not change the overall pattern"}, {"measurement": "stimulation of Akt phosphorylation by insulin", "setting": "[3]; muscle, WAT and liver", "value": "completely inhibited"}, {"measurement": "blood glucose after acute PST treatment", "setting": "[4]; acute, Chga-KO mice on normal chow diet", "value": "induces hyperglycemia"}, {"measurement": "insulin sensitivity (GTT)", "setting": "[4]; chronic PST 5 μg/g BW for 15 days, Chga-KO mice on NCD", "value": "induced insulin resistance"}]}
